Results on five compounds are retold here after ChEMBL document CHEMBL1201862, “PubChem BioAssay data set” (2004).

The test system of experiment [1] is A-375. Briefly: proliferation inhibition in MITF-low A375 cells – cell-based, cherry-pick samples, set 2, counter-screen for MITF modulator project, dose response (AID 540335). In kind it is functional. As to conditions: Homo sapiens.
Experiment [2] has as its system A-375. Briefly: MITF: Counter assay: A375 proliferation Measured in Cell-Based System Using Plate Reader - 2084-03_Inhibitor_Dose_DryPowder_Activity. [Related pubchem assays (depositor defined):AID488944]. In kind it is functional. Particulars: Homo sapiens.
Experiment [3] is described as follows: reduced cellular PGC1a acetyl-lysine signal – cell-based, cherry-picked samples, dose response (AID 720514).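 Further: potency may reflect raised or lowered acetylation signal.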 In kind it is functional.
A short description of experiment [4]: THP-1 cell cytotoxicity, dose response, cytotoxicity control for non-replicating M. tuberculosis project (AID 489025). In kind it is functional.
Experiment [5] in a line: NIH-3T3 fibroblast cytotoxicity, dose response, cytotoxicity control, cell-based, fluorescence, Alamar Blue, secondary assay (AID 2327).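 Further: NIH-3T3 mouse fibroblasts cultured with fluconazole at 8 µg/mL.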 In kind it is functional. On the technique in general: The colour change of resazurin is a common sign of viable cells or microbes.
The nature of experiment [6]: HepG2 cell cytotoxicity, dose response, cytotoxicity control for non-replicating M. tuberculosis project (AID 489018). It is filed as functional. Particulars: Mycobacterium tuberculosis.
Experiment [7] can be described thus: HPDE-C7 pancreatic duct cell viability loss – fluorescence, HTS (AID 430). In kind it is functional, cell-based. As to conditions: Homo sapiens.
Experiment [8] can be described thus: viability of PTEN-deleted HCT116 cells – cell-based, HCT116 PTEN knockout, dose response (AID 1047).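 Further: HCT116 colon tumor cells with PTEN knocked out; cells exposed to compound for 60 hours before readout; potency for loss of cell viability measured by luminescence.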 It is filed as functional.
Experiment [9] in a line: viability of HCT116 lacking mutant beta-catenin – cell-based, human colon tumor, dose response (AID 1045).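 Further: HCT116 colon tumor cells with beta catenin knocked out; cells exposed to compound for 60 hours.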 In kind it is functional.
Experiment [10] in a line: fluconazole-exposed Candida albicans growth modulators – fluorescence, retest, confirmation (AID 2467). It is filed as functional, cell-based.
Experiment [11] in a line: Vero E6 cell cytotoxicity, dose response, cytotoxicity control for non-replicating M. tuberculosis project, secondary assay (AID 492998). It is filed as functional, VeroE6. Particulars: Vero C1008.
Experiment [12] addresses T1, Microphthalmia-associated transcription factor (Homo sapiens, UniProt O75030).
T1 sequence (O75030 whole entry): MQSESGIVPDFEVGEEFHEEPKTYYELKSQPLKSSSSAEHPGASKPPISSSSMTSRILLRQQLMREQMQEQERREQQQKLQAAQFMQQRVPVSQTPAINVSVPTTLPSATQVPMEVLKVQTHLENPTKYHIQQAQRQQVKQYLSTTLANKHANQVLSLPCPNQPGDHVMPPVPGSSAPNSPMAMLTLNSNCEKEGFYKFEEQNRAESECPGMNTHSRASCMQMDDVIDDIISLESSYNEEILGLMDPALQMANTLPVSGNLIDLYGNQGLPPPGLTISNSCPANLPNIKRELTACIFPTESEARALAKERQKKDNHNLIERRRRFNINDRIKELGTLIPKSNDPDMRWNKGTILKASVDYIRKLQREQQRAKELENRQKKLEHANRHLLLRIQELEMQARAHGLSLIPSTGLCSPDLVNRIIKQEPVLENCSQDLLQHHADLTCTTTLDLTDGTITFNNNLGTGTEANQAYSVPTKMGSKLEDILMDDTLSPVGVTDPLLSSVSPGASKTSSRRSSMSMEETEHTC
Briefly: reducers of TRPM1 reporter luminescence, concentration series – cell-based, SK-MEL-5, cherry-picked, set 3, MITF inhibitor project, dose response (AID 493073).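 Further: SK-MEL-5 melanoma cells with luciferase driven by the MITF target TRPM1 promoter.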 In kind it is functional.

Experiment [13] can be described thus: viability loss of HPDE-C7K cells – cell-based, fluorescence, HTS, primary screen (AID 431). It is filed as functional. As to conditions: Homo sapiens.
A further experiment in a line: cells. In kind it is functional.
For a further experiment, the system named is Escherichia coli. Briefly: microbe, parasite or virus in culture.
The target of experiment [14] is Dual specificity tyrosine-phosphorylation-regulated kinase 1A (Rattus norvegicus, UniProt Q63470). It is filed as biochemical, Homo sapiens.
The target of experiment [15] is Dual specificity protein kinase CLK1 (Homo sapiens, UniProt P49759). Briefly: inhibition of human CLK1 activity – biochemical, cherry-picked samples, selectivity assay for Dyrk1A inhibitor project, dose response (AID 588811).
Another experiment addresses Mu-type opioid receptor (Homo sapiens, UniProt P35372). Briefly: Counterscreen for agonists of heterodimerization of the mu 1 (OPRM1) and delta 1 (OPRD1) opioid receptors: Luminescence-based cell-based high throughput dose response assay to identify agonists of OPRM1 homodimerization. In kind it is functional.
In experiment [16] the target is T2, Short transient receptor potential channel 4 (Mus musculus, UniProt Q9QUQ5).
T2 sequence (Q9QUQ5 whole entry): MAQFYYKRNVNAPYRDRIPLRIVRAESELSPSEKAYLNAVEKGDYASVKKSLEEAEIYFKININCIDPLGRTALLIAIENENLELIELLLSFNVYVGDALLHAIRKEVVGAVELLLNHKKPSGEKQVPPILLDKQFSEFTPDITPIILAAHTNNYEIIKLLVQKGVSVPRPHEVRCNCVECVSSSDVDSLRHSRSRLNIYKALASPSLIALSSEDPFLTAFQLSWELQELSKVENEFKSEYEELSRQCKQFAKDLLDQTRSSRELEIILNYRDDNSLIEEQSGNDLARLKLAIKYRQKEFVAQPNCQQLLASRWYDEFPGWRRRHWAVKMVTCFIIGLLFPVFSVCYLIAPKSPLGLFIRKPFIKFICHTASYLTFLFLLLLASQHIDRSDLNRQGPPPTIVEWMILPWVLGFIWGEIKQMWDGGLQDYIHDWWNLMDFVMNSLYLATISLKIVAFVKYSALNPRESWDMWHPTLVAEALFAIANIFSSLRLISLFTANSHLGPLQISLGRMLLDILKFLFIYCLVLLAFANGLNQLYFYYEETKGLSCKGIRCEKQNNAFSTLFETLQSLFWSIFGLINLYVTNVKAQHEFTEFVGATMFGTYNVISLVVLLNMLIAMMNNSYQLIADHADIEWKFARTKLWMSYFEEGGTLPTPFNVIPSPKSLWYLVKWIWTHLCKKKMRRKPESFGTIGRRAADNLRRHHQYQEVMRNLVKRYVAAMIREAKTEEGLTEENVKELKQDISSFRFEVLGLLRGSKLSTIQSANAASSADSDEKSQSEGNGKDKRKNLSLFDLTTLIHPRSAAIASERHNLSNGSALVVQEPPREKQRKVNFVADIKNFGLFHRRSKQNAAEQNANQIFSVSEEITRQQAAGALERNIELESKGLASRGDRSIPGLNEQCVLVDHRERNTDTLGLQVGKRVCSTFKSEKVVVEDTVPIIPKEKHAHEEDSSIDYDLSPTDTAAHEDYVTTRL
Briefly: calcium entry via TRPC4 opening agents – cell-based, HEK293 TRPC4/mu-opioid, Fluo-4 calcium, dose response (AID 434937). In kind it is functional.

In experiment [17] the target is Opioid receptors; mu & delta (Homo sapiens, UniProt P41143+P35372). Briefly: OPRM1-OPRD1 heterodimer agonist potency – cell-based, luminescence, dose response (AID 588407). In kind it is functional.
The target in experiment [18] is Delta-type opioid receptor (Homo sapiens, UniProt P41143). Briefly: Counterscreen for agonists of heterodimerization of the mu 1 (OPRM1) and delta 1 (OPRD1) opioid receptors: Luminescence-based cell-based high throughput dose response assay to identify agonists of OPRD1 homodimerization. [Related pubchem assays (depositor defined):AID504326, AID504355, AID504692, AID504904, AID504905]. It is filed as functional.

The target of experiment [19] is 5-hydroxytryptamine receptor 5A (Homo sapiens, UniProt P47898). Briefly: Counterscreen for agonists of OPRM1-OPRD1 heterodimerization: luminescence-based cell-based high throughput dose response assay to identify agonists of 5-hydroxytryptamine (serotonin) 5A receptor (HTR5A). [Related pubchem assays (depositor defined):AID504326, AID504355, AID504692, AID504904, AID504905]. It is filed as functional. A general note: Counterscreens check selectivity or assay interference.

The target of experiment [20] is T3, Voltage-gated N-type calcium channel alpha-1B subunit/Amyloid beta A4 precursor protein-binding family A member 1 (Homo sapiens, UniProt Q00975+Q02410). In kind it is protein assay.
In experiment [21] the target is G-protein coupled receptor 35 (Homo sapiens, UniProt Q9HC97). Briefly: inhibition of zaprinast-stimulated GPR35 beta-arrestin translocation – imaging, U2OS, beta-arrestin-GFP, zaprinast agonist, primary screen (AID 2058).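 Further: antagonist potency meaning inhibition of agonist-induced arrestin redistribution.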 It is filed as functional.
Experiment [22] addresses T4, Beta-adrenergic receptor kinase 1 (Homo sapiens, UniProt P25098).
T4 sequence (P25098 whole entry): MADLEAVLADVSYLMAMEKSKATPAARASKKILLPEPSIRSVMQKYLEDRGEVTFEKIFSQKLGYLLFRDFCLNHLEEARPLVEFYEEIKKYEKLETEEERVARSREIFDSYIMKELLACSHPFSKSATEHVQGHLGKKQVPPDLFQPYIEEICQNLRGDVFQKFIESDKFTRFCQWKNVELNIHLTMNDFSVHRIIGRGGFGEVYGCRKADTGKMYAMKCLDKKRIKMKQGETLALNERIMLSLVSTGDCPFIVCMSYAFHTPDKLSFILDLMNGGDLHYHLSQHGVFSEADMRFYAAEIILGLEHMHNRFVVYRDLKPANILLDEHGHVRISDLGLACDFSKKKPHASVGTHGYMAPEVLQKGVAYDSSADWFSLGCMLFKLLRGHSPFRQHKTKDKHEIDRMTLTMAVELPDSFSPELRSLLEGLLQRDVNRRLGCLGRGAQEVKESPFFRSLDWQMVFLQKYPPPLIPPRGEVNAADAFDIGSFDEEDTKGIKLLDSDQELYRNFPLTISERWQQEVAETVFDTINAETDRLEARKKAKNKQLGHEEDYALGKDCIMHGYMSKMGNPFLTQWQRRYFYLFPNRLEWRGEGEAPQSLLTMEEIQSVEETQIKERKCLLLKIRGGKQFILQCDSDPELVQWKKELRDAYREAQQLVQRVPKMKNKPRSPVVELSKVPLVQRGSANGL
Briefly: Second cherry pick EC50 of compounds blocking aptamer binding to bead-bound GRK2 by flow cytometry, biochemical (AID 504815). (Flow cytometry measures light scatter and fluorescence of single cells or particles in a stream.)

The target of experiment [23] is T4, Beta-adrenergic receptor kinase 1. Briefly: blockers of aptamer binding to GRK2 – biochemical, flow cytometry beads, FAM-aptamer, powder set 1, dose response (AID 588720).
The target in experiment [24] is T3, Voltage-gated N-type calcium channel alpha-1B subunit/Amyloid beta A4 precursor protein-binding family A member 1. In kind it is protein assay. The source holds these as a separate data set.
In experiment [25] the target is T5, Carboxy-terminal domain RNA polymerase II polypeptide A small phosphatase 1 (Homo sapiens, UniProt Q9GZU7).
T5 sequence (Q9GZU7 whole entry): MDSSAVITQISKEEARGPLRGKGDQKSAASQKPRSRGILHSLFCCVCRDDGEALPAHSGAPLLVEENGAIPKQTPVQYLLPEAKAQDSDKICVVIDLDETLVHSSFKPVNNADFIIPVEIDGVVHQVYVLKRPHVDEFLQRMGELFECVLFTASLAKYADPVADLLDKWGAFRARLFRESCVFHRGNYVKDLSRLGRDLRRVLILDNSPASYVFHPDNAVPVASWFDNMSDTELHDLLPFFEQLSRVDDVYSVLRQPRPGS
Briefly: CTDSP1 inhibitors, concentration-response, biochemical, absorbance readout, ultra-high-throughput screen actives (AID 540297). It is filed as functional.

The target in experiment [26] is T6, Small ubiquitin-related modifier 1 (Homo sapiens, UniProt P63165). Briefly: SUMO1 protein-protein binding blockers, potency – biochemical, FRET, dose response (AID 624383). As to conditions: read-out: IC50_Mean. In kind it is functional.
The target in experiment [27] is T6, Small ubiquitin-related modifier 1. Briefly: SUMO1 protein interaction blockers, potency – biochemical, fluorescence polarization, uHTS hits, dose response (AID 624382). It is filed as functional. As to conditions: read-out: IC50_Mean.

Activity calls are given as the source filed them.

T6 sequence (P63165 whole entry): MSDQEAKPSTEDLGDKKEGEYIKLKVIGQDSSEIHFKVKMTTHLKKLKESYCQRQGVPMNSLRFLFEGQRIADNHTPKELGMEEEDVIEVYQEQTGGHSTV
T3 sequence (Q00975 whole entry): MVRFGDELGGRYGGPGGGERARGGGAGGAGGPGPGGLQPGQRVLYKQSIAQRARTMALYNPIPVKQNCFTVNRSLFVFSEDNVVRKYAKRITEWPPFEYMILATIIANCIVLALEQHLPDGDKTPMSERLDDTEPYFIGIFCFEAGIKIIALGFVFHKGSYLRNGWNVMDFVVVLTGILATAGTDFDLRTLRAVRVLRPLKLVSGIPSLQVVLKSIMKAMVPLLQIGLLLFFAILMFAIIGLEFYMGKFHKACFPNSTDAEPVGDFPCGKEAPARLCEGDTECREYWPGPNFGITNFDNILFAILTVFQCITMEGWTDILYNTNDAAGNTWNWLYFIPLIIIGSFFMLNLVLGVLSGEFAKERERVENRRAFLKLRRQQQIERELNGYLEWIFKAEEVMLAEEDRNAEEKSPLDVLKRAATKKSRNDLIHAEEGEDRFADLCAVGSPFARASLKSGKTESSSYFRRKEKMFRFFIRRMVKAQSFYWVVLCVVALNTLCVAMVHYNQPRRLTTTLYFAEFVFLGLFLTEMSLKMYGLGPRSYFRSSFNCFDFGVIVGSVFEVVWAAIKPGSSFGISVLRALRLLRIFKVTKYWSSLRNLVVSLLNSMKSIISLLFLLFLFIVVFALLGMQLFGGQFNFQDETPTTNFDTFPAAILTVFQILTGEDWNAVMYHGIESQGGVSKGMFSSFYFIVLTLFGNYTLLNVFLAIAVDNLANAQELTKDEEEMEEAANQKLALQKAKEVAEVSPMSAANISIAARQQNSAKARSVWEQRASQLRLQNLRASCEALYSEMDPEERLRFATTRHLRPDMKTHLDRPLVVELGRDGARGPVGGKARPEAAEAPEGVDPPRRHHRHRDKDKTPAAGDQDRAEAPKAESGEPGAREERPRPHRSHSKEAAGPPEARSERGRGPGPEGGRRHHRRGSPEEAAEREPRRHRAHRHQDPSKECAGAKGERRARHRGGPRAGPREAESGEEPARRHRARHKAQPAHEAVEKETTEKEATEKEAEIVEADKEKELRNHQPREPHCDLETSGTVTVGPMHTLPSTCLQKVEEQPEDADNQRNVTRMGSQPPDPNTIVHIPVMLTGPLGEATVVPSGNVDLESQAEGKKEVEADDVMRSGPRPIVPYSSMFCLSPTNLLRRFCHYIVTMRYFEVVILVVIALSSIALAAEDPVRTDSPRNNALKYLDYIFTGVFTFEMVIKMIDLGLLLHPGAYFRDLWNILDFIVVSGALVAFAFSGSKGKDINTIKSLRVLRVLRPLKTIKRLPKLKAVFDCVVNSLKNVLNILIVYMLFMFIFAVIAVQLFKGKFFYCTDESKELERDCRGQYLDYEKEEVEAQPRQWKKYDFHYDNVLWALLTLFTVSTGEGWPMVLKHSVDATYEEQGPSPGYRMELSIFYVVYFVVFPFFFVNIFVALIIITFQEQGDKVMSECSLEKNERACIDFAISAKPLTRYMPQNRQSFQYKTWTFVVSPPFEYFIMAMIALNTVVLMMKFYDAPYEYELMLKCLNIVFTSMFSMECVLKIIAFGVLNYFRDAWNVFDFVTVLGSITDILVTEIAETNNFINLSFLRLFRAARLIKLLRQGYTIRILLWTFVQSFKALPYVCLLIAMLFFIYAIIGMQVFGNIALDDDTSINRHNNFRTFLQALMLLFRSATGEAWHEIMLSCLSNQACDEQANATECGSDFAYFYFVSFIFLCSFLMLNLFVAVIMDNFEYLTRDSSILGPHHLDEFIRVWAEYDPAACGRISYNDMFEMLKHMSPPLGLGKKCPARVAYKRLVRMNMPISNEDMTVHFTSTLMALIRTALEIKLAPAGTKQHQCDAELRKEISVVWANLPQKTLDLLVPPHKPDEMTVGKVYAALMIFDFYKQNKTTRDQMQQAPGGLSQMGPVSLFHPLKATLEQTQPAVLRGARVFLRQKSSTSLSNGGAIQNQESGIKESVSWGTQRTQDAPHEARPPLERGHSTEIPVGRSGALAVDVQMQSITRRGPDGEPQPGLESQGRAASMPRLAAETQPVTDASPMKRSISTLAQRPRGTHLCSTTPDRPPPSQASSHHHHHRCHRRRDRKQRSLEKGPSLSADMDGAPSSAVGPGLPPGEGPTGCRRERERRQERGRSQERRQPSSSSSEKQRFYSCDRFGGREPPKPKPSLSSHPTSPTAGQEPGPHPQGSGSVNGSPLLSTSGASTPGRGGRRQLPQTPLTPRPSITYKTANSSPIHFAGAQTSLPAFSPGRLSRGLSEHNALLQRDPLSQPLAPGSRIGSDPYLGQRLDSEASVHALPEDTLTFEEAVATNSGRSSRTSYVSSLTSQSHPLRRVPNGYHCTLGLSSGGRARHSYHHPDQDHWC
T3 sequence (Q02410 whole entry): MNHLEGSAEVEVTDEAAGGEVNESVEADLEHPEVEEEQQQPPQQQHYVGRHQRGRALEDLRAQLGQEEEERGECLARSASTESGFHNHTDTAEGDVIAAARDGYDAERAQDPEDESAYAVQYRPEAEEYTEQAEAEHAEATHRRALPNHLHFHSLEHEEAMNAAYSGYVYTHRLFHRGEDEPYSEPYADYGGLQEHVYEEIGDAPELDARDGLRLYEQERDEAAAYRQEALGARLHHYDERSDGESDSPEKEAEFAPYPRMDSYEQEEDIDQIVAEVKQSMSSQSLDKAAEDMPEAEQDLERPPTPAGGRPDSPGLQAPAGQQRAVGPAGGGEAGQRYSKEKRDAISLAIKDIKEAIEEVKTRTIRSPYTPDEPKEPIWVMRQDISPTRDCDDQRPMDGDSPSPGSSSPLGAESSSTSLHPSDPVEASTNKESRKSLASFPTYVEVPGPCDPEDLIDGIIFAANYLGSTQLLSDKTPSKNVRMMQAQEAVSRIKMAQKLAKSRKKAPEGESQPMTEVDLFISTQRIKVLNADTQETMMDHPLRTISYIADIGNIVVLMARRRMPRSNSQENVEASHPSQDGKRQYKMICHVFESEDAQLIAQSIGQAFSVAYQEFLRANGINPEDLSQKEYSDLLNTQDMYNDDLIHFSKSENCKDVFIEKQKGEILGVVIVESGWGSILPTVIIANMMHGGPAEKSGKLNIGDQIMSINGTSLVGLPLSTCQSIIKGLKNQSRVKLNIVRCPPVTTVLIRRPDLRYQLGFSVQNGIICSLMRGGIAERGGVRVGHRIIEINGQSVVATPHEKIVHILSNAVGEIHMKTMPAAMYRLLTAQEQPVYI
5-hydroxytryptamine receptor 5A, sequence (P47898 whole entry): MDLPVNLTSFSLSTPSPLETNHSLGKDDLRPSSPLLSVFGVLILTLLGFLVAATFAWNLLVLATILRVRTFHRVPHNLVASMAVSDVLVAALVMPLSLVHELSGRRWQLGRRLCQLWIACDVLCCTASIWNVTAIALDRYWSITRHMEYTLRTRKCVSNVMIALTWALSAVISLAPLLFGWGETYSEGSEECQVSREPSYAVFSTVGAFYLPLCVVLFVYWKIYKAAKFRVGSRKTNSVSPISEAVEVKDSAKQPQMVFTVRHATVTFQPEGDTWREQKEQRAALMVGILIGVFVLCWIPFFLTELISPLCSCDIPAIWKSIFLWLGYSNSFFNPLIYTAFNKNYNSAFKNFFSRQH
Delta-type opioid receptor, sequence (P41143 whole entry): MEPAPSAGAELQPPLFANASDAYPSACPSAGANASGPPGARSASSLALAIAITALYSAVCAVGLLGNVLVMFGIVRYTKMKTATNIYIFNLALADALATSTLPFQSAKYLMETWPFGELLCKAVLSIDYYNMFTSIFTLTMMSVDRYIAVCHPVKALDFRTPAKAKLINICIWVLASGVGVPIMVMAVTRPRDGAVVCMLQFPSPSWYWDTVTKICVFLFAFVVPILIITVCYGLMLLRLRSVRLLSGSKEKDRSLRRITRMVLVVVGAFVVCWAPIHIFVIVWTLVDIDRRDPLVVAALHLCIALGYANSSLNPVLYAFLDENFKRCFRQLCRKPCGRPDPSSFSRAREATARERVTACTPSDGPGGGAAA
Mu-type opioid receptor, sequence (P35372 whole entry): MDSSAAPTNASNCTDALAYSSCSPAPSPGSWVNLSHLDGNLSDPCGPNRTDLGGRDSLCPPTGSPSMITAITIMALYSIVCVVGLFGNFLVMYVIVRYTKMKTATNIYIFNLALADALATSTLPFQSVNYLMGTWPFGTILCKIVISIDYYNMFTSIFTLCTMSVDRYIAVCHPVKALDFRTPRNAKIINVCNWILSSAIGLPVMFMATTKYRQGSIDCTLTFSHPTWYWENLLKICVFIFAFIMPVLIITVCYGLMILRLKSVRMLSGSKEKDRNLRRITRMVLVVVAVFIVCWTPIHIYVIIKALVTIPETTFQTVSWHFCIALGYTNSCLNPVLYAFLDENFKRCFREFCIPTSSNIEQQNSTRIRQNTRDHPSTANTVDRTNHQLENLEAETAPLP
G-protein coupled receptor 35, sequence (Q9HC97 whole entry): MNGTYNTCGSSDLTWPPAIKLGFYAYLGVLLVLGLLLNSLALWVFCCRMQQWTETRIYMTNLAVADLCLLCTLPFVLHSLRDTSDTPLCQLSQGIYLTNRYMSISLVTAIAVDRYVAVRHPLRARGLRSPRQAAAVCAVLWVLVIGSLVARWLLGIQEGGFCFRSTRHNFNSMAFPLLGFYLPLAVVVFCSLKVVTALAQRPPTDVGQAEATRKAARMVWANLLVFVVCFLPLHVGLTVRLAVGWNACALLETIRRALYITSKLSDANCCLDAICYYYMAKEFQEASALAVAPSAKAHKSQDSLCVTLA

On to `COc1ccc(C(=O)C(CN2CCCC2)c2ccccc2)cc1` (stereo not given), for which the AC50 was > 35 µM (active) with A-375 [1], > 35 µM (active) in the experiment with A-375 [2], 10.5 µM (active) in experiment [3] and 9.13 µM (active) in [12]. The CC50 is 7.27 µM (active) in experiment [4], 17.3 µM (active) in experiment [6] and 11.6 µM (active) in [11]. Moreover, the EC50 in [5] is 59.6 µM (active); in [7], 4.54 µM (active); in experiment [8] it was 2.44 µM (active); in experiment [9] it was 1.83 µM (active); in [10], 2.13 µM (active); in [13], 6.46 µM (active). Further, in the experiment “cells”, the IC50 was 16.5 µM (active).

Regarding `Cc1ccc(-n2nnnc2SCC(=O)Nc2ccc3c(c2)OCCO3)cc1C`, the AC50 in the experiment with Escherichia coli is 30.9 µM (active).

Consider `COc1cccc(Nc2ncnc3sc(C)cc23)c1`, for which the AC50 in [14] is 3.81 µM (active); in experiment [15] it was 5.47 µM (active).

`COc1ccccc1N1CCN(C(c2cccs2)C(C)NC(=O)c2ccco2)CC1` (stereo not given): the EC50 was 50.3 µM (inactive) at Mu-type opioid receptor; 0.084 µM (active) in experiment [16]; more than 3.425 µM in experiment [17]; > 92.5 µM (inactive) in experiment [18]; > 92.5 µM (inactive) in [19].

In the case of `NS(=O)(=O)c1ccc(CCNC(=O)CCS(=O)(=O)c2ccc(Br)cc2)cc1`, the IC50 in experiment [20] was > 50 µM (inactive); in experiment [21], 2.23 µM (active); in experiment [24], 40.9 µM (active); in experiment [25] it was 4.17 µM (active); in [26], 9.08 µM (active); in experiment [27], > 66.6 µM (inactive). Further, the EC50 is 5.2 µM (active) in experiment [22] and 1.21 µM (active) in experiment [23].

Usually AC50 stands for the concentration giving half of the maximal activity seen. What is called CC50 is the concentration at which the toxic effect on the cells reaches its halfway point. Usually EC50 stands for the concentration giving half of the maximal effect.
